According to US6492428B1, “Compounds having MIF antagonist activity” (The Picower Institute for Medical Research, priority 2000, dated 2002):
“Also recorded” adds a separate entry of the source. Like-named read-outs stand apart in the source and are kept apart here.

Assays:
human MIF [1] = target: T1, human MIF (Homo sapiens, UniProt P14174); assay: MIF dopachrome tautomerase enzyme inhibition assay; type: biochemical; details: for MIF enzyme inhibition activity (in words): dopachrome tautomerase assay; for inhibition at 200 µM: read-out: % inhibition at 200 μM; for IC50: MIF 0.7 μg/ml treated 5 minutes, dopachrome methyl ester (1) substrate; for effect on MIF enzymatic activity at doses equimolar to MIF monomer: higher MIF concentrations (approximately 0.1 mg/ml and above)
T1 construct: made in house; host or cells: E. coli
T1 sequence (P14174 2-115 limits assumed): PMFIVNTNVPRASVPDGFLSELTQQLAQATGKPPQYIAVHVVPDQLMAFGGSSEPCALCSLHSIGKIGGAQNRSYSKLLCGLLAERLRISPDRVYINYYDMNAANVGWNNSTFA

human MIF [2] = target: T1, human MIF; assay: Covalent enzyme modification (SDS-PAGE, MALDI MS, dialysis/gel filtration)
L6 rat myoblasts = assay: Fructose-2,6-bisphosphate (F2,6BP) induction assay; type: cell-based; details: for induction of F2,6BP production (in words): MIF conjugated with compound, 10 ng/ml; for F2,6BP production: murine MIF 10 ng/ml, untreated or pretreated (conjugated) with compound, control=100%
recombinant mouse MIF = recombinant mouse MIF (Mus musculus, UniProt P34884); assay: Tautomerase enzyme inactivation of murine MIF before the bioassay
human MIF [3] = target: T1, human MIF; assay: MIF tautomerase inhibition in the presence of fetal bovine serum; type: biochemical
anti-MIF antibodies = assay: Cross-reactivity with anti-MIF antibodies (ELISA); type: binding; details: for recognition by anti-MIF antibodies (in words): MIF incubated with NAPQI (4) versus unmodified MIF
Method: FIG. 7 illustrates the loss of immunological crossreactivity with anti-MIF antibodies following incubation of MIF with NAPQI (4).
(iii) Cross-reactivity with anti-MIF antibodies. […] Without being bound by mechanism, and in view of the lack of bioactivity of the MIF-NAPQI (4) conjugate in the above arachidonic acid release and F2,6BP induction assays, it is likely that NAPQI (4) conjugation induces distortion of the MIF peptide conformation. This distortion also renders the MIF-NAPQI (a) (4) conjugate non-crossreactive with anti-MIF Mab.
The presence of such structural changes was further explored by characterizing the binding of additional MIF-specific antibodies (Picower Institute clones XIV. 14.3, III.D.9 and XIV. 15.5, which differ in their epitope recognition and activity to inhibit biologically active MIF), using a standard ELISA technique. In a standardized sandwich ELISA specific for MIF Meinhardt et al., Endocrinology, 137:5090-5095, 1996), an equivalent amount of MIF-NAPQI (4) conjugate (as indicated by protein concentration) was recognized 7-fold less than purified recombinant MIF that had not been exposed to NAPQI (4) (FIG. 7). Again, without being bound by mechanism, this loss of cross-reactivity of MIF-NAPQI (4) was most likely due to remote structural changes in MIF induced by covalent attachment of NAPQI (4). These structural changes might, in turn, account for the lack of bioactivities of MIF-NAPQI (4) and MIF-N-acetyl-3-hydroxy-p-benzoquinone imine (6) conjugates in the F2,6BP induction assay, and for the lack of bioactivity of MIF-NAPQI (4) conjugate in the arachidonic acid release assay.

NIH/3T3 cells = assay: MIF-induced arachidonic acid release; type: cell-based; details: cells labeled with 1 μM [14C]-arachidonic acid
Method: NIH/3T3 cells were labeled with 1 μM [^14C]-arachidonic acid. After overnight culture, the cells were washed extensively with PBS and then the appropriate samples of MIF or MIF-NAPQI (4) conjugate were added in duplicate. The release of arachidonic acid into the culture medium was then measured.
The effect of MIF-NAPQI (4) conjugate on arachidonic acid release was tested by adding equivalent amounts of either MIF or MIF-NAPQI (4) conjugate to NIH3/3T3 cell cultures that had been pre-equilibrated with radioactive arachidonate, followed by the measurement of arachidonic acid release by scintillation counting. Briefly, NIH/3T3 fibroblasts were labeled with 1 μM [^14C]-arachidonic acid. After overnight culture, the cells were washed extensively with PBS, and the appropriate samples of MIF or MIF-NAPQI (4) conjugate were added in duplicate. The release of arachidonic acid into medium was then measured as described previously (Mitchell et al., J. Biol. Chem., 274:18100-18106, 1999).

Molecule: COc1cc(NC(C)=O)ccc1O [Compound 10]
- MIF enzyme inhibition activity (in words) (human MIF [1]): little, if any
- inhibition at 200 µM (human MIF [1]; 200 μM compound, MIF 0.7 μg/ml, 5 minutes): 0%

Molecule: O=C(O)/C=C/C1=CC(=O)C(=O)C=C1 [Compound 16]
- IC50 (human MIF [1]): 0.3 µM
- MIF enzyme inhibition activity (in words) (human MIF [1]): sub-micromolar
- effect on MIF enzymatic activity at doses equimolar to MIF monomer (human MIF [1]): virtually eliminated

Molecule: O=C(O)C1=CC(=O)C(=O)C=C1 [Compound 14]
- IC50 (human MIF [1]): 4 µM

Molecule: CC(=O)N=C1C=CC(=O)C=C1 [Compound 4, N-Acetyl-p-benzoquinone imine]
- restoration of enzymatic activity by dialyzing or gel filtering inactivated MIF (human MIF [2]; MIF inactivated with compound, data not shown): not possible to restore enzymatic activity
- chemical modification of MIF (in words) (human MIF [2]; SDS-PAGE and MALDI mass spectra of treated MIF): stable, covalent conjugates
- induction of F2,6BP production (in words) (L6 rat myoblasts): fail to induce
- F2,6BP production (L6 rat myoblasts): 94 % of control
- inhibition of enzyme activity / enzyme inactivation (recombinant mouse MIF; mouse MIF pretreated with 167 μM compound): 96%
- inhibition at 167 µM (recombinant mouse MIF; read-out: inhibition of enzyme activity / enzyme inactivation, mouse MIF pretreated with 167 μM compound): 98%
- inhibition of enzymatic activity (human MIF [1]): 69%
- MIF enzyme inhibition activity (in words) (human MIF [1]): potent inhibitor
- inhibition at 49.5 µM (human MIF [1]; read-out: enzyme inhibition): 37%
- inhibition at 190 µM (human MIF [1]; read-out: enzyme inhibition): 94%
- inhibition at 500 µM (human MIF [1]; read-out: enzyme inhibition): 100%
- fetal bovine serum concentration at which loss in inhibitory activity became detectable (human MIF [3]; MIF 0.72 μg/ml, compound 0.2 mM): 25%
- inhibition of MIF in the presence of serum proteins (in words) (human MIF [3]; MIF 0.72 μg/ml, compound 0.2 mM, 20 minutes): occurred even in the presence of serum proteins
- inhibition at 200 µM (human MIF [3]; read-out: residual inhibitory activity): 31%

Molecule: O=C(O)/C=C/c1ccc(O)c(O)c1 [Compound 15]
- MIF enzyme inhibition activity (in words) (human MIF [1]): little, if any

Molecule: COC1=CC(=NC(C)=O)C=CC1=O [Compound 11]
- IC50 (human MIF [1]): 25 µM

Molecule: CC(=O)N=C1C=CC(=O)C(O)=C1 [Compound 6, N-acetyl-3-hydroxy-p-benzoquinone imine]
- induction of F2,6BP production (in words) (L6 rat myoblasts): fail to induce
- F2,6BP production (L6 rat myoblasts): 105 % of control
- IC50 (human MIF [1]): 0.7 µM
- enzyme activity lost (human MIF [1]; MIF 2.8 μM (0.1 mg/ml, 8.4 μM monomer), compound at 7 μM (0.83 equivalents based on monomer)): 93%
- enzyme activity lost (in words) (human MIF [1]; MIF 0.1 mg/ml, 1.7 equivalents/monomer): All
- MIF enzyme inhibition activity (in words) (human MIF [1]): potent inhibitors; also recorded: sub-micromolar
- effect on MIF enzymatic activity at doses equimolar to MIF monomer (human MIF [1]): virtually eliminated
- more potent than dihydroquinone-like analog 5 (human MIF [1]; ratio of IC50 values versus compound 5): more than 715 fold

Molecule: CCN1C(=O)C=CC1=O [Compound 18, N-ethylmaleimide, reference compound]
- MIF enzyme inhibition activity (in words) (human MIF [1]): No inhibitory activity
- inhibition at 500 µM (human MIF [1]; read-out: % inhibition at 500 μM): 0%

Molecule: CC(=O)Nc1ccc(O)c(O)c1 [Compound 5]
- IC50 (human MIF [1]): 500 µM
- MIF enzyme inhibition activity (in words) (human MIF [1]): little, if any

Molecule: iodoacetamide [Compound 17, reference compound]
- % inhibition at 500 μM (human MIF [1]; 500 μM compound, MIF 0.7 μg/ml, 5 minutes): 0% inhibition at 500 μM
- MIF enzyme inhibition activity (in words) (human MIF [1]): No inhibitory activity

Molecule: CC(=O)N=C1C=C(C)C(=O)C(C)=C1 [Compound 8]
- IC50 (human MIF [1]): 120 µM

Molecule: O=C(O)c1ccc(O)c(O)c1 [Compound 13]
- MIF enzyme inhibition activity (in words) (human MIF [1]): little, if any
- inhibition at 200 µM (human MIF [1]): 24%

Molecule: CC(=O)N=C1C(C)=CC(=O)C=C1C [Compound 9]
- IC50 (human MIF [1]): 200 µM

Molecule: CC(=O)N=C1C=CC(=O)C(C)=C1 [Compound 7]
- IC50 (human MIF [1]): 35 µM

Molecule: CC(=O)Nc1ccc(O)cc1 [Compound 3, acetaminophen, reference compound]
- IC50 (human MIF [1]): 10000 µM

B1: MIF-NAPQI (4) conjugate: stable covalent conjugate formed when MIF is treated with NAPQI (4) (conjugate, UniProt P14174 2-115, looked up)
Macrophage migration …: PMFIVNTNVPRASVPDGFLSELTQQLAQATGKPPQYIAVHVVPDQLMAFGGSSEPCALCSLHSIGKIGGAQNRSYSKLLCGLLAERLRISPDRVYINYYDMNAANVGWNNSTFA
modifications: covalent NAPQI adduct
- recognition by anti-MIF antibodies (in words) (anti-MIF antibodies): fail to recognize
- recognition by anti-MIF antibodies (in words) (anti-MIF antibodies; listed as MIF-NAPQI conjugate): significantly less
- recognition in sandwich ELISA, less than unmodified recombinant MIF (anti-MIF antibodies; equivalent amount by protein concentration, standardized sandwich ELISA specific for MIF): 7 fold
- induction of F2,6BP production (in words) (L6 rat myoblasts): failed to induce
- induction of arachidonic acid release (in words) (NIH/3T3 cells): did not induce; also recorded: does not induce
- arachidonic acid released into culture supernatant relative to cultures treated with MIF (NIH/3T3 cells; equivalent amounts of MIF or conjugate): less than 1/10
